The values below come from PubChem BioAssay (NCI).

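How tested: cells in 96-well plates exposed to compound for 48 hours at five concentrations. The concentration for full growth arrest is given as TGI.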 Some results are limits rather than exact numbers.

Common to all, as to assay: NCI anticancer screen, dose series, 48 h
In assay [1] the test system is 786-0 renal.
Assay [2] has as its system ACHN renal.
Assay [3] relates to MDA-MB-435.
The subject of assay [4] is NCI-H23 lung.
Assay [5] relates to NCI-H522 lung.
Assay [6] has as its system NCI/ADR-RES ovarian.
Assay [7] has as its system OVCAR-5 ovarian.
Assay [8] relates to OVCAR-8 ovarian.
Assay [9] relates to SF-295 CNS.
For assay [10], the system named is T-47D breast.
Assay [11] concerns TK-10 renal.
Assay [12] deals with MOLT-4 leukemia.

Consider `O=C(/C=C1\C[C@H]2C=Nc3ccccc3C(=O)N2C1)NCCCCNC(=O)/C=C1\C[C@H]2C=Nc3ccccc3C(=O)N2C1`, for which the TGI in [1] worked out at 3.32 µM; in [2], 12.6 µM; in [3] it was 21 µM; in [4], 27 µM; in [5], 3.57 µM; in assay [6], 47.1 µM. In addition, the TGI in assay [7] stood at 34.4 µM; in [8], 9.76 µM; in assay [9] it was 35.4 µM; in assay [10], 22.3 µM; in assay [11], 23.8 µM.

On to `CN(C)Cc1cc(C(C)(C)C)ccc1-c1ccc(C(C)(C)C)cc1CN(C)C`, for which the TGI in assay [1], in assay [2], in assay [3], in [12], in assay [4] and in assay [5] was over 100 µM throughout. Moreover, the TGI in assay [6], in [7], in assay [8], in assay [9], in assay [10] and in assay [11] was over 100 µM throughout.

In the case of `Cc1ccc2c(c1)C(=O)N1CCC[C@H]1C=N2`, the TGI in assay [1] was over 100 µM; in [2], over 70.9 µM; in assay [3], 33.2 µM; in assay [12], over 84.1 µM; in [4], 39.7 µM; in assay [5], 22.5 µM. Further, the TGI was over 64 µM in assay [6]; over 93.1 µM in assay [7]; over 100 µM in assay [8]; over 100 µM in assay [9]; over 100 µM in assay [10]; 85.7 µM in assay [11].

Turning to `N#CC(C#N)=C(N)/C(C#N)=C/c1ccc2ccccc2n1`, the TGI in assay [1] is 34.2 µM; in assay [2] it was 39.6 µM; in [3], over 100 µM; in [12], 97.9 µM; in [4], over 100 µM; in assay [6], over 100 µM. Further, the TGI in assay [7] was over 100 µM; in assay [8] it was over 100 µM; in assay [9] it was 59.6 µM; in [10], over 100 µM; in [11] it was over 100 µM.

In the case of `Cc1nc2c(nc1C)-c1c(c3c(n1C)C(=O)CCC3)C(=O)C2=O`, the TGI was 3.23 µM in assay [1]; 1.66 µM in assay [2]; 0.353 µM in assay [3]; 2.85 µM in assay [4]; 1.6 µM in assay [5]; 2.05 µM in assay [6]. For the same molecule, the TGI is 2.72 µM in assay [7]; 0.638 µM in assay [8]; 3.71 µM in assay [9]; 0.0932 µM in [10]; 4.51 µM in [11].

`COc1ccc(/C=C2\CCC(C)/C(=C\c3ccc(OC)c(OC)c3)C2=O)cc1OC` (stereo unspecified): the TGI is 19.4 µM in assay [1]; 16.7 µM in assay [2]; over 100 µM in assay [3]; 11.7 µM in [12]; 15.6 µM in assay [4]; 32.5 µM in assay [6]. Moreover, the TGI in assay [7] was 26.6 µM; in assay [8], 39.8 µM; in assay [9] it was 23 µM; in assay [10], 28.2 µM; in [11], 7.41 µM.

Turning to `CCN(CC)C(=S)SS(=O)(=O)c1ccc(Cl)cc1`, the TGI in assay [1] was over 100 µM; in assay [2], over 100 µM; in assay [3], 48.5 µM; in assay [4], over 100 µM; in assay [5], 0.0995 µM; in [6], over 100 µM. For the same molecule, the TGI in assay [7] was over 100 µM; in [8], 34 µM; in [9], over 100 µM; in [10], over 100 µM; in assay [11], over 100 µM.

For the molecule `O=C(O)Cc1ccc(Oc2nc3ccccc3nc2C(=O)O)cc1`, the TGI in assay [1], in assay [2], in [3], in assay [4], in [5] and in [6] was over 100 µM each time. In addition, the TGI in assay [7], in [8], in assay [9], in assay [10] and in assay [11] was over 100 µM in each case.

For the molecule `CCCC(=O)O[C@H]1C=C2C[C@@]34SS[C@]5(CC6=C[C@H](OC(C)=O)[C@@H]7O[C@@H]7[C@H]6N5C3=O)C(=O)N4[C@@H]2[C@H]2O[C@H]21`, the TGI in assay [1] stood at 0.00841 µM; in assay [2], 0.0391 µM; in [3], 0.0241 µM; in assay [12], 1.91 µM; in [4] it was 0.291 µM; in assay [6] it was 0.442 µM. The TGI in assay [7] stood at 0.251 µM; in assay [8], 0.907 µM; in [9] it was 1.35 µM; in assay [10], 0.605 µM; in assay [11] it was 0.24 µM.

As for `COC(C(=O)C(O)C(C)O)C1CC2C=C3C=C(OC4CC(OC5CC(O)C(OC)C(C)O5)C(OC(C)=O)C(C)O4)C(C)C(=O)C3=C(O)C2=C(O)C1OC1CC(OC2CC(OC3CC(C)(O)C(OC(=O)C(C)C)C(C)O3)C(O)C(C)O2)C(O)C(C)O1` (stereo unspecified), the TGI in assay [1] was under 0.01 µM; in assay [3] it was under 0.01 µM; in assay [12], over 100 µM; in assay [4], under 0.01 µM; in [5], under 0.01 µM; in assay [6], 0.425 µM. Further, the TGI in [8] is under 0.01 µM; in assay [10], under 0.01 µM; in assay [11], over 100 µM.

As for `O=C(Cc1csc(N=Nc2c(O)[nH]c3ccccc23)n1)Nc1ccccc1`, the TGI in assay [1] is 34.3 µM; in [2], 54.4 µM; in [3] it was over 100 µM; in [12], over 100 µM; in assay [4], over 100 µM; in [6], 41 µM. In addition, the TGI in assay [7] is over 100 µM; in [8], 65.8 µM; in [9], over 100 µM; in [10], over 100 µM; in [11], over 100 µM.

Consider `O=C(C[n+]1ccccc1)N/N=C(\Cc1nc2ccc([N+](=O)[O-])cc2[nH]c1=O)C(=O)Nc1cc(Cl)c(Cl)cc1Cl`, for which the TGI in assay [1], in [2], in assay [3], in assay [12], in [4] and in [5] was over 100 µM in each case. Moreover, the TGI in assay [6], in assay [7], in assay [8], in [9] and in [10] was over 100 µM throughout.

On to `C/C1=C/C(C)CC(C)OC(=O)C(C)NC(=O)C(Cc2ccc(O)c(I)c2)N(C)C(=O)C(C)NC(=O)C(C)C1` (stereo unspecified), for which the TGI was 3.79 µM in [1]; 16 µM in assay [3]; 23.7 µM in assay [12]; 44.4 µM in [4]; 0.649 µM in assay [5]; 24.4 µM in assay [6]. The TGI in assay [7] is over 100 µM; in [8], 17.9 µM; in assay [9] it was 1.25 µM; in assay [10], 29.1 µM; in [11], 0.046 µM.

With `O=C(N/N=C/c1ccc([N+](=O)[O-])o1)c1ccc(C(=O)N/N=C/c2ccc([N+](=O)[O-])o2)cc1`, the TGI in assay [1] was over 100 µM; in [2], over 100 µM; in assay [3], 30.9 µM; in assay [12], over 100 µM; in [4] it was over 100 µM; in assay [5] it was over 100 µM. Moreover, the TGI in assay [6] is over 100 µM; in assay [7] it was over 100 µM; in [8] it was 77.9 µM; in assay [9], over 100 µM; in assay [10] it was over 100 µM.

Take `CCCCc1ccc(Nc2nc(=S)c3[nH]cnc3[nH]2)cc1`: the TGI in assay [1] was over 100 µM; in [2], 59.2 µM; in assay [3], 48.1 µM; in assay [12], 22.2 µM; in [4], 51.7 µM; in [5], 22.8 µM. Further, the TGI in [6] is 40.3 µM; in assay [7], 43.5 µM; in assay [9], 78.7 µM; in assay [10], 49.3 µM; in [11], 46.5 µM.

With `[N-]=[N+]=Nc1c(C=O)c(=O)n(-c2ccccc2)c2ccccc12`, the TGI in assay [1] amounted to 35 µM; in assay [2], 40.7 µM; in assay [3], 34.5 µM; in assay [12], 12.7 µM; in [4], 38 µM; in [6] it was 88.5 µM. Also, the TGI in assay [7] was over 100 µM; in [9], over 100 µM; in assay [10], 61.4 µM; in [11], 39.1 µM.

Consider `CC1(C)CC23CC(C)(C)c4cccc(c42)OCc2ccc4ccc5ccc(nc5c4n2)COc2cccc1c23`, for which the TGI in assay [1], in [2], in assay [3], in assay [12], in [5] and in assay [6] was over 50 µM in each case. The TGI in assay [7], in assay [8], in [9], in assay [10] and in [11] was over 50 µM in each case.
